Results: patent publication US9943525B2, “Composition for reducing cell senescence comprising Rho-kinase inhibitor and use thereof” (Samsung Electronics Co., Ltd., priority 2014, dated 2018)

Key:
[1] = tested on: senescent progeric fibroblasts (cell passage 17); assay: DNA comet assay; assay type: cell-based, human; conditions: 4 weeks, vs DMSO, p<0.05, FIG. 21
Description: (§1) The degrees of restoration of DNA damage in senescent progeric fibroblasts by the Rho-kinase inhibitors were identified by a DNA comet assay. This method is performed by detecting DNA fractions cleaved by ultraviolet (UV) irradiation. This method is based on gel electrophoresis. During gel electrophoresis, damaged DNA migrates farther than normal DNA forming a tail like a comet-tail. Then, a slide was stained with SYBR Green, and the length of a tail of a DNA fraction was measured using a fluorescence microscope to identify the degree of DNA damage.
FIG. 21 is a graph displaying degrees of DNA damage in progeric fibroblasts (cell passage 17) cultured in the presence of Rho-kinase inhibitors Y-27632 (5 μM), Fasudil (5 μM), and SR3677 (0.5 μM) measured by a DNA comet assay indicating the degree of DNA damage. In FIG. 21, senescent progeric cells (cell passage 17) were cultured in culture media supplemented with 5 μM of Y-27632, 5 μM of FASUDIL, and 0.5 μM of SR3677 for 4 weeks in a 5% CO2 incubator at 37° C. The culture media were changed at every 4 days with new culture media supplemented with 5 μM of Y-27632, 5 μM of FASUDIL, and 0.5 μM of SR3677. Cells having a cell doubling time of 6 to 7 days were used as young cells. A negative control group was prepared in the same manner, except that DMSO was used. […] Thus, it was confirmed that the degree of DNA damage increases in senescent cells. […] In FIG. 21, * indicates statistically significant (p<0.05).

[2] = tested on: senescent myoblasts (passage 11); assay: microscopic observation of cell number and shape; assay type: cell-based, Human; conditions: 4 weeks, FIG. 13; for numbers of cells: vs DMSO
Description: (§2) Myoblast cell lines (Human Skeletal Muscle Myoblasts, Lonza CC-2580 LOT:0000387550) were cultured in SkBM™-2 Basal Media (Lonza CC-3246) including an SkGM™-2 SingleQuots™ Kit (Lonza CC-3244) on plates coated with Collagen Type I (Greiner Bio One, 658950) in a 5% CO2 incubator at 37° C. Subculture was initiated when the cells were approximately 85% confluent in plates. Early subcultures were performed at a split ratio of 1:4, and later subcultures were performed at a split ratio of 1:2. When cell doubling time was 14 days, the cells were regarded as senescent myoblasts (cell passages 10 to 12).
Senescent cells were seeded on each well of a 6-well plate coated with Collagen Type I (Greiner Bio One, 657950) in a concentration of 2,000 cells/well. Senescent myoblasts (passage 11) were cultured in the presence of 5 μM of Y-27632, 5 μM of FASUDIL, and 0.5 μM of SR3677 for 4 weeks in a 5% CO2 incubator at 37° C. The culture media were changed at every 4 days with new culture media supplemented with 5 μM of Y-27632, 5 μM of FASUDIL, and 0.5 μM of SR3677. A negative control group was prepared in the same manner, except that 0.05 (v/v) % of DMSO was used.
FIG. 13 illustrates microscopic images of cells cultured in the presence of 5 μM of Y-27632, 5 μM of FASUDIL, and 0.5 μM of SR3677. In “a” of FIG. 13, a portion was selected and marked by a rectangle with a dashed line, and the selected portion was enlarged in a1 for closer examination of the cultured cells. In a1 of FIG. 13, a portion was selected, marked by a rectangle with a dashed line, enlarged in a2 for much closer examination of the cultured cells (Scale bar 20 μm).

[3] = tested on: senescent fibroblasts (after 38 cell passages); assay: DNA comet assay; assay type: cell-based, human; conditions: 4 weeks, vs control, p<0.01, FIG. 12
Description: as §1, with “cells” for “progeric fibroblasts”
FIG. 12 is a graph displaying degrees of DNA damage in fibroblasts (after 38 cell passages) cultured in the presence of Rho-kinase inhibitors Y-27632 (5 μM), Fasudil (5 μM), and SR3677 (0.5 μM) measured by a DNA comet assay indicating the degree of DNA damage. In FIG. 12, senescent cells (after 38 cell passages) were cultured in culture media supplemented with 5 μM of Y-27632, 5 μM of FASUDIL, and 0.5 μM of SR3677 for 4 weeks in a 5% CO2 incubator at 37° C. The culture media were changed at every 4 days with new culture media supplemented with 5 μM of Y-27632, 5 μM of FASUDIL, and 0.5 μM of SR3677. Also, negative control groups were prepared in the same manner as described above, except that one negative control group was prepared with no treatment and another was treated with 0.05 (v/v) % of DMSO. Cells having undergone 17 passages and having a cell doubling time of 4 to 5 days were used as young cells. […] Thus, it was confirmed that the degree of DNA damage increases in senescent cells. In the Comet assay, the Tail Moment is defined as multiplication of a length of the tail by a total DNA fraction contained in the tail. That is, the Tail Moment is a length of the tail migrated during gel electrophoresis. As the length of the tail decreases, the degree of DNA damage decreases. […] In FIG. 12, ** indicates statistically significant (p<0.01). In FIG. 12, the “Fibroblast p17” and “Fibroblast p38” refer to fibroblasts that were subcultured for 17 passages and fibroblasts subcultured for 38 passages, respectively.

[4] = tested on: senescent myoblasts (11 cell passages); assay: lipofuscin autofluorescence by flow cytometry; assay type: cell-based, Human; conditions: 4 weeks, vs control, p<0.05, FIG. 14
Description: as §2
In addition, amounts of lipofuscin accumulated in the cultured cells were measured. Senescent myoblasts (11 cell passages) were cultured in the presence of 5 μM of Y-27632, 5 μM of FASUDIL, and 0.5 μM of SR3677 for 4 weeks in a 5% CO2 incubator at 37° C. The culture media were changed at every 4 days with new culture media supplemented with 5 μM of Y-27632, 5 μM of FASUDIL, and 0.5 μM of SR3677. Since lipofuscin has autofluorescence characteristics, light having a wavelength of 488 nm was irradiated to the cells by using a FACSCaliber (Beckton Dickinson) and light emission at 520 nm was measured. The results were analyzed using Cell Quest 3.2 software (Beckton Dickinson). FIG. 14 is a graph displaying amounts of lipofuscin in myoblasts (11 cell passages) cultured in the presence of Rho-kinase inhibitors Y-27632 (5 μM), Fasudil (5 μM), and SR3677 (0.5 μM). […] In FIG. 14, * indicates statistically significant (p<0.05).

O=S(=O)(c1cccc2cnccc12)N1CCCNCC1 [FASUDIL, 5-(1,4-diazepane-1-sulfonyl)isoquinoline]
DNA damage (Tail Moment) ([1]; 5 μM): considerably reduced | cell shape ([2]; 5 μM): spindle shape generally found in young cells | numbers of cells ([2]; 5 μM): greater than that of the control group | DNA damage (Tail Moment) ([3]; 5 μM): considerably restored | amounts of lipofuscin ([4]; 5 μM): significantly reduced

C[C@@H](N)[C@H]1CC[C@H](C(=O)Nc2ccncc2)CC1 [Y-27632, (1R,4R)-4-((R)-1-aminoethyl)-N-(pyridin-4-yl)cyclohexanecarboxamide]
DNA damage (Tail Moment) ([1]; 5 μM): considerably reduced | cell shape ([2]; 5 μM): spindle shape generally found in young cells | numbers of cells ([2]; 5 μM): greater than that of the control group | DNA damage (Tail Moment) ([3]; 5 μM): considerably restored | amounts of lipofuscin ([4]; 5 μM): significantly reduced

CN(C)CCOc1cc(-c2cn[nH]c2)ccc1NC(=O)C1COc2ccccc2O1 (stereo not drawn) [SR3677]
DNA damage (Tail Moment) ([1]; 0.5 μM): considerably reduced | cell shape ([2]; 0.5 μM): spindle shape generally found in young cells | numbers of cells ([2]; 0.5 μM): greater than that of the control group | DNA damage (Tail Moment) ([3]; 0.5 μM): considerably restored | amounts of lipofuscin ([4]; 0.5 μM): significantly reduced
